Where a name gives a salt, the structure may show the parent alone.
Target: T1, Recombinant human IKKβ (residues 1-737) (Homo sapiens, UniProt O14920)
T1 construct: Recombinant human IKKβ (residues 1-737); GST (C); made in house
T1 sequence (O14920 1-737): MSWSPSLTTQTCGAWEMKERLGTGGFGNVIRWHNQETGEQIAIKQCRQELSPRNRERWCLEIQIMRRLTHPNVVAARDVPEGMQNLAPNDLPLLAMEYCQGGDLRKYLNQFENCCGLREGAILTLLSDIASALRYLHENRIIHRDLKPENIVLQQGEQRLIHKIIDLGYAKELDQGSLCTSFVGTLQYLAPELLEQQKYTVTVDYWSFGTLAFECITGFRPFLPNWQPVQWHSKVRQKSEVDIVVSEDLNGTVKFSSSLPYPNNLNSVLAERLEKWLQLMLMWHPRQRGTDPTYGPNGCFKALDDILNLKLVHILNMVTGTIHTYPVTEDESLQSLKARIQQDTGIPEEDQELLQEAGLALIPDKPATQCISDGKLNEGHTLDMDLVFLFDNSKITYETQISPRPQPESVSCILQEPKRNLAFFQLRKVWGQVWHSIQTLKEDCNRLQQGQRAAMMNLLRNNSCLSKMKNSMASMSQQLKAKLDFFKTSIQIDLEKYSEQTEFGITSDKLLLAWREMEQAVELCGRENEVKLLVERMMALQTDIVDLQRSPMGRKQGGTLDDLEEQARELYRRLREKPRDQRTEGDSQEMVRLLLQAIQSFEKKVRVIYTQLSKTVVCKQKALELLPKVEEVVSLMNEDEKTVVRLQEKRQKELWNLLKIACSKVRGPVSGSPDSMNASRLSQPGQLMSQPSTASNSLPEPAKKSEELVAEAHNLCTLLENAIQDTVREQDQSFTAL
Experiment: IKK2 assay (TR-FRET)
Type: biochemical
Settings: ATP 1 μM final, read-out: pIC50 against IKK2 (converted)
Procedure: Recombinant human IKKβ (residues 1-737) was expressed in baculovirus as a C-terminal GST-tagged fusion protein, and its activity was assessed using a time-resolved fluorescence resonance energy transfer (TR-FRET) assay. Briefly, IKK2 (0.5 nM-5 nM final) diluted in assay buffer (50 mM HEPES, 10 mM MgCl2, 1 mM CHAPS pH 7.4 with 1 mM DTT and 0.01% w/v BSA) was added to wells containing various concentrations of compound or DMSO vehicle (1.7% final). The reaction was initiated by the addition of GST-IB substrate (25 nM final)/ATP (1 μM final), in a total volume of 6 μl. The reaction was incubated for 15 minutes at room temperature, then terminated by the addition of 3 μl of detection reagent in buffer containing 50 mM EDTA (100 mM HEPES pH 7.4, 150 mM NaCl, 50 mM EDTA and 0.01% w/v BSA) containing antiphosphoserine-IB-32/36 monoclonal antibody 12C2 (Cell Signalling Technology, Beverly Mass., USA) labelled with W-1024 europium chelate (Wallac OY, Turku, Finland), and an APC-labelled anti-GST antibody (Prozyme, San Leandro, Calif., USA) was added and the reaction was further incubated for 60 minutes at room temperature. The degree of phosphorylation of GST-IB was measured using a BMG Rubystar plate reader (BMG Labtech, Aylesbury, UK) as a ratio of specific 665 nm energy transfer signal to reference europium 620 nm signal.

SMILES | IC50 [µM]
CCS(=O)(=O)N1CCC(c2c[nH]c3c(C(N)=O)cc(-c4ccc(N5CCNCC5)nc4)cc23)CC1 [Example 135, 3-[1-(ethylsulfonyl)-4-piperidinyl]-5-[6-(1-piperazinyl)-3-pyridinyl]-1H-indole-7-carboxamide trifluoroacetate] | ≤ 10
CCS(=O)(=O)N1CCC(c2c[nH]c3c(C(N)=O)cc(-c4cc(CN(C)CCO)c(OC)c(OC)c4)cc23)CC1 [Example 56, 3-[1-(ethylsulfonyl)-4-piperidinyl]-5-[3-{[(2-hydroxyethyl)(methyl)amino]methyl}-4,5-bis(methyloxy)phenyl]-1H-indole-7-carboxamide] | ≤ 10
CCS(=O)(=O)N1CCC(c2c[nH]c3c(C(N)=O)cc(-c4cccc(CNS(=O)(=O)c5ccc(F)c(F)c5)c4)cc23)CC1 [Example 384, 5-[3-({[(3,4-difluorophenyl)sulfonyl]amino}methyl)phenyl]-3-[1-(ethylsulfonyl)-4-piperidinyl]-1H-indole-7-carboxamide] | ≤ 10
CCS(=O)(=O)N1CCC(c2c[nH]c3c(C(N)=O)cc(-c4ccc(OC)c(CN5CCOCC5)c4)cc23)CC1 [Example 264, 3-[1-(ethylsulfonyl)-4-piperidinyl]-5-[4-(methyloxy)-3-(4-morpholinylmethyl)phenyl]-1H-indole-7-carboxamide trifluoroacetate] | ≤ 10
CCS(=O)(=O)N1CCC(c2c[nH]c3c(C(N)=O)cc(-c4ccc5c(c4)CN(CC4CC4)C5)cc23)CC1 [Example 425, 5-[2-(cyclopropylmethyl)-2,3-dihydro-1H-isoindol-5-yl]-3-[1-(ethylsulfonyl)-4-piperidinyl]-1H-indole-7-carboxamide] | ≤ 10
CCS(=O)(=O)N1CCC(c2c[nH]c3c(C(N)=O)cc(-c4cccc(CN)c4)cc23)CC1 [Example 14, 5-[3-(aminomethyl)phenyl]-3-[1-(ethylsulfonyl)-4-piperidinyl]-1H-indole-7-carboxamide] | ≤ 10
CCS(=O)(=O)N1CCC(c2c[nH]c3c(C(N)=O)cc(-c4ccc(N(C)C)nc4)cc23)CC1 [Example 226, 5-[6-(dimethylamino)-3-pyridinyl]-3-[1-(ethylsulfonyl)-4-piperidinyl]-1H-indole-7-carboxamide trifluoroacetate] | ≤ 10
CCS(=O)(=O)N1CCC(c2c[nH]c3c(C(N)=O)cc(-c4cc(CNCC(C)(C)C)c(OC)c(OC)c4)cc23)CC1 [Example 55, 5-[3-{[(2,2-dimethylpropyl)amino]methyl}-4,5-bis(methyloxy)phenyl]-3-[1-(ethylsulfonyl)-4-piperidinyl]-1H-indole-7-carboxamide] | ≤ 10
CCS(=O)(=O)N1CCC(c2c[nH]c3c(C(N)=O)cc(-c4csc(CN(C)CCOCCO)c4)cc23)CC1 [Example 415, 3-[1-(ethylsulfonyl)-4-piperidinyl]-5-(5-{[{2-[(2-hydroxyethyl)oxy]ethyl}(methyl)amino]methyl}-3-thienyl)-1H-indole-7-carboxamide trifluoroacetate] | ≤ 10
CCS(=O)(=O)N1CCC(c2c[nH]c3c(C(N)=O)cc(-c4ccc(OC)c(CN(C)C)c4)cc23)CC1 [Example 263, 5-[3-[(dimethylamino)methyl]-4-(methyloxy)phenyl]-3-[1-(ethylsulfonyl)-4-piperidinyl]-1H-indole-7-carboxamide trifluoroacetate] | ≤ 10
CCS(=O)(=O)N1CCC(c2c[nH]c3c(C(N)=O)cc(-c4csc(CN(C)CCNC(C)=O)c4)cc23)CC1 [Example 410, 5-(5-{[[2-(acetylamino)ethyl](methyl)amino]methyl}-3-thienyl)-3-[1-(ethylsulfonyl)-4-piperidinyl]-1H-indole-7-carboxamide trifluoroacetate] | ≤ 10
CCS(=O)(=O)N1CCC(c2c[nH]c3c(C(N)=O)cc(-c4cc(F)cc(CN5CCCCC5)c4)cc23)CC1 [Example 291, 3-[1-(ethylsulfonyl)-4-piperidinyl]-5-[3-fluoro-5-(1-piperidinylmethyl)phenyl]-1H-indole-7-carboxamide trifluoroacetate] | ≤ 10
CCNCc1cc(F)cc(-c2cc(C(N)=O)c3[nH]cc(C4CCN(S(=O)(=O)CC)CC4)c3c2)c1 [Example 283, 5-{3-[(ethylamino)methyl]-5-fluorophenyl}-3-[1-(ethylsulfonyl)-4-piperidinyl]-1H-indole-7-carboxamide trifluoroacetate] | ≤ 10
CCS(=O)(=O)N1CCC(c2c[nH]c3c(C(N)=O)cc(-c4cc(F)cc(CNC(C)C)c4)cc23)CC1 [Example 285, 3-[1-(ethylsulfonyl)-4-piperidinyl]-5-(3-fluoro-5-{[(1-methylethyl)amino]methyl}phenyl)-1H-indole-7-carboxamide trifluoroacetate] | ≤ 10
CCS(=O)(=O)N1CCC(c2c[nH]c3c(C(N)=O)cc(-c4ccc(CNCCC(C)(C)C)s4)cc23)CC1 [Example 199, 5-(5-{[(3,3-dimethylbutyl)amino]methyl}-2-thienyl)-3-[1-(ethylsulfonyl)-4-piperidinyl]-1H-indole-7-carboxamide] | ≤ 10
CCS(=O)(=O)N1CCC(c2c[nH]c3c(C(N)=O)cc(-c4cc(F)cc(CNC)c4)cc23)CC1 [Example 282, 3-[1-(ethylsulfonyl)-4-piperidinyl]-5-{3-fluoro-5-[(methylamino)methyl]phenyl}-1H-indole-7-carboxamide trifluoroacetate] | ≤ 10
CCNC(C)c1cccc(-c2cc(C(N)=O)c3[nH]cc(C4CCN(S(=O)(=O)CC)CC4)c3c2)c1 (stereo not shown) [Example 280, 5-{3-[1-(ethylamino)ethyl]phenyl}-3-[1-(ethylsulfonyl)-4-piperidinyl]-1H-indole-7-carboxamide trifluoroacetate] | ≤ 10
CCS(=O)(=O)N1CCC(c2c[nH]c3c(C(N)=O)cc(-c4csc(CN5CCCC5CC(C)C)c4)cc23)CC1 (stereo not shown) [Example 93, 3-[1-(ethylsulfonyl)-4-piperidinyl]-5-(5-{[2-(2-methylpropyl)-1-pyrrolidinyl]methyl}-3-thienyl)-1H-indole-7-carboxamide trifluoroacetate] | ≤ 10
CCS(=O)(=O)N1CCC(c2c[nH]c3c(C(N)=O)cc(-c4cc(F)cc(CNC5CCC5)c4)cc23)CC1 [Example 287, 5-{3-[(cyclobutylamino)methyl]-5-fluorophenyl}-3-[1-(ethylsulfonyl)-4-piperidinyl]-1H-indole-7-carboxamide trifluoroacetate] | ≤ 10
CCC(CC)NCc1ccc(-c2cc(C(N)=O)c3[nH]cc(C4CCN(S(=O)(=O)CC)CC4)c3c2)cc1 [Example 142, 5-(4-{[(1-ethylpropyl)amino]methyl}phenyl)-3-[1-(ethylsulfonyl)-4-piperidinyl]-1H-indole-7-carboxamide] | ≤ 10
CCS(=O)(=O)N1CCC(c2c[nH]c3c(C(N)=O)cc(-c4cccc(C5CCCCN5)c4)cc23)CC1 (stereo not shown) [Example 279, 3-[1-(ethylsulfonyl)-4-piperidinyl]-5-[3-(2-piperidinyl)phenyl]-1H-indole-7-carboxamide trifluoroacetate] | ≤ 10
CCS(=O)(=O)N1CCC(c2c[nH]c3c(C(N)=O)cc(-c4cc(CN(C)C)c(OC)c(OC)c4)cc23)CC1 [Example 51, 5-[3-[(dimethylamino)methyl]-4,5-bis(methyloxy)phenyl]-3-[1-(ethylsulfonyl)-4-piperidinyl]-1H-indole-7-carboxamide] | ≤ 10

— patent publication US8063071B2 (GlaxoSmithKline, LLC, priority 2007, dated 2011)
